Assay results reported in patent US20220280516A1, “PEGYLATED HEPARIN NANOMICELLE LOADED WITH CARBOXYLIC ACID ANTI-TUMOR DRUG AND PREPARATION METHOD THEREOF” (priority 2020, published 2022).

System: 5T33 multiple myeloma cells
Test: In vivo experiment of multiple myeloma
Conditions: 5T33 myeloma mice, subcutaneous
Procedure: Thirty 6-week-old mice are divided into three groups, which are administrated with free bendamustine (Group I), PEG-Py-HP-bendamustine (Group II) and PEG-Mal-HP-bendamustine (Group III) respectively. Male and female animals in each group are halved, and there is no statistically significant difference in body weight among animals in each group. The dosage of free bendamustine group is 0.1 ml/kg body weight/day, and that of PEG-Py-HP-bendamustine group and PEG-Mal-HP-bendamustine group is 20 mg/kg (body weight/day).
One week after injection of 1,000,000 5T33 multiple myeloma cells into the tail veins of mice, drugs are administered subcutaneously according to the above scheme, for three times a week. During the administration period, the animals are weighed every day, and the dosage on that day is determined according to the weight, and the animals are continuously administered until the death of the mice. The venous blood of mice is collected and stored every week, and the time of death of mice is recorded.

Question: What does the source list for `Cn1c(CCCC(=O)O)nc2cc(N(CCCl)CCCl)ccc21` [free bendamustine, Bendamustine]?
Answer: Average survival days of mice after drug injection (three times a week until death): 36 days; Average tumor load in serum of mice after drug injection (1 day): 132.2 µg/mL; Average tumor load in serum of mice after drug injection (8 days): 201.5 µg/mL; Average tumor load in serum of mice after drug injection (15 days): 321.2 µg/mL; Average tumor load in serum of mice after drug injection (22 days): 608.4 µg/mL; Average tumor load in serum of mice after drug injection (29 days): 873.3 µg/mL; Average tumor load in serum of mice after drug injection (36 days): 946.8 µg/mL
